According to US11053207B2, “Indoleamine-2,3-dioxygenase inhibitor and preparation method therefor” (SHANGHAI INSTITUTE OF ORGANIC CHEMISTRY, CHINESE ACADEMY OF …, priority 2014, dated 2021):

Legend:
Hela cells = test: Test for cell activity (Hela cells, interferon γ, kynurenine read at 480 nm); assay type: cell-based; conditions: human interferon γ 50 ng/mL, 48 h
Method: Hela cells (100 μL) were inoculated on a 96-well plate at an inoculation amount of 5×10^3 per well and grown overnight. The next day, after the compound was diluted, 1 μL was added to a 96-well plate and then 100 μL of medium containing human interferon y (final concentration of 50 ng/mL) was added to the 96-well plate to allow the final volume to be 200 μL. 48 h after incubating, 140 μL of supernatant in each well was transferred to a new 96-well plate. 10 μL of 6.1 N trichloroacetic acid was added to each well and mixed and incubated at 50° C. for 30 min, IDO catalyzed N-formyl canine urea to become canine urea. The reaction mixture was centrifuged at 2500 rpm for 10 minutes to remove the precipitate. 100 μL of supernatant in each well was transferred to a new 96-well plate and mixed with 100 μL of 2% dimethylaminobenzaldehyde acetic acid solution. After the canine urea was separated, the value was measured at 480 nm using a SPECTRAmax i3 reader.

IDO enzyme = IDO enzyme (Homo sapiens (Human), UniProt P14902); test: IDO enzyme inhibitory activity; assay type: biochemical; conditions: OD321 nm, 60 min
Chain of IDO enzyme (P14902 whole entry): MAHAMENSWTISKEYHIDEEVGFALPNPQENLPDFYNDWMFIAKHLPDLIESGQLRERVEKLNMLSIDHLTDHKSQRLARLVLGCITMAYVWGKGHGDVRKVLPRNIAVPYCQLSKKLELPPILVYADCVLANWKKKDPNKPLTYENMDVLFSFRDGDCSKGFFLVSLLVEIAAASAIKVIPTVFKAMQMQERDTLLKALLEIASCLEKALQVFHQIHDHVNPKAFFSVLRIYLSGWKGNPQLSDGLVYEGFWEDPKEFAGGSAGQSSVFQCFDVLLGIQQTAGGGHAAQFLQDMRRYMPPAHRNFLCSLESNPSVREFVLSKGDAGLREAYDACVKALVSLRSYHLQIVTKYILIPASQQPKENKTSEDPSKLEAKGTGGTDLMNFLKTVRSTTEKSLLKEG
Method: Firstly, the IDO gene was amplified by PCR, the PCR amplification products were recovered, and then the pET28a plasmid (purchased from Shanghai Baoman Biotechnology Co., Ltd.) and the IDO gel recovery products were digested with EcoR I and Xho I restriction endonucleases (37° C., digestion for 2 h), electrophorized and recovered. The recovered products were ligated overnight by a T4 ligase and then the ligation products were added to DH5α competent cells, placed on ice for 30 min, heat-shocked at 42° C. for 90 s, cultured on a shaker, and seeded to a plate. Monoclonies were picked, identified by PCR and then by sequencing.
The constructed BL21 containing the pET28a-IDO plasmid was cultured at 37° C. to OD600=0.6-0.8, and a final concentration of 7 μM of chlorine methemoglobin and 1 mM of IPTG (isopropyl-β-D-thiogalactoside) were added for induction at 28° C. for 4 h; after the induction, the cell was centrifuged at 6000 rpm at 4° C., the collected cells were washed once with 20 mM PBS (pH6.5), and centrifuged and collected again.
The collected cells were resuspended with a lysis solution (20 mM PBS pH 6.5), ultrasonically lysed (40% of power, lysis for 20 min, placed on ice), the lysed bacteria were centrifuged at 13000 rpm for 15 min, precipitate was discarded and the supernatant was maintained; the nickel column was equilibrated with the lysis solution (20 mM PBS pH 6.5) for 3 column volumes, and then the lysis supernatant was loaded onto the nickel column; after loading, four column volumes of a rinsing solution (20 mM PBS pH 6.5, 20 mM imidazole) were used for washing, and finally protein was eluted with eluent (20 mM PBS pH 6.5, 250 mM imidazole); the eluted protein solution was dialyzed for 4 h, and the dialysis solution was 20 mM PBS, pH 6.5. After the dialysis, the protein sample was concentrated, packed, flash frozen by liquid nitrogen, and stored at −80° C. for further use.
Firstly, the compound was subject to a 3-fold gradient dilution. 1 μL of each concentration was added to a 96-well plate; 50 μL of the IDO enzyme solution (final concentration 600 ng/100μL) was added: 25 μL of substrate 1 mixture solution was added, 25 μL of substrate 2 mixture solution was added to initiate the reaction. Finally, the plate was read at OD321 nm, 60 min.

Compound	IC50 (Hela cells) [nM]	IC50 (IDO enzyme) [nM]
CS(=N)(=O)CCNc1nonc1/C(=N/O)Nc1ccc(F)c(Br)c1 (racemic) [compound 1, (±) (Z)—N-(3-bromo-4-fluorophenyl)-N′-hydroxy-4-((2-(thio-methylsulfoxideimine)ethyl)amino)-1,2,5-oxadiazole-3-carboxamidine]	40	22
CS(=N)(=O)CCCNc1nonc1/C(=N/O)Nc1ccc(F)c(Br)c1 (racemic) [compound 2, (±)(Z)—N-(3-bromo-4-fluorophenyl)-N′-hydroxy-4-((3-(thio-methylsulfoxideimine)propyl)amino)-1,2,5-oxadiazole-3-carboxamidine]	< 100	< 3000
CS(=N)(=O)CCCCNc1nonc1/C(=N/O)Nc1ccc(F)c(Br)c1 (racemic) [compound 3, (±)(Z)—N-(3-bromo-4-fluorophenyl)-N′-hydroxy-4-((4-(thio-methylsulfoxideimine)butyl)amino)-1,2,5-oxadiazole-3-carboxamidine]	8	74
CS(=N)(=O)CCCCNc1nonc1/C(=N/O)Nc1ccc(F)c(C(F)(F)F)c1 (racemic) [compound 4, (±)(Z)—N-(4-fluoro-3-(trifluoromethyl)phenyl)-N′-hydroxy-4-((4-(thio-methylsulfoxideimine)butyl)amino)-1,2,5-oxadiazole-3-carboxamidine]	< 500	< 19000
CS(=N)(=O)CCCCNc1nonc1/C(=N/O)Nc1cccc(C(F)(F)F)c1 (racemic) [compound 5, (±)(Z)—N′-hydroxy-4-((4-(thio-methylsulfoxideimine)butyl)amino)-N-(3-(trifluoromethyl)phenyl)-1,2,5-oxadiazole-3-carboxamidine]	< 76	< 3600
N=S(=O)(CCNc1nonc1/C(=N/O)Nc1ccc(F)c(Br)c1)c1ccccc1 (racemic) [compound 7, (±) (Z)—N-(3-bromo-4-fluorophenyl)-N′-hydroxy-4-((2-(thio-phenylsulfoxideimine)ethyl)amino)-1,2,5-oxadiazole-3-carboxamidine]	< 260	< 2600
CS(=N)(=O)CCCNc1nonc1/C(=N/O)Nc1cccc(S(F)(F)(F)(F)F)c1 (racemic) [compound 8]	< 800	< 14000
CS(=O)(CCCNc1nonc1/C(=N/O)Nc1ccc(F)c(Br)c1)=NC#N (racemic) [compound 9, (±) (Z)—N-(3-bromo-4-fluorophenyl)-N′-hydroxy-4-((3-(thio-methylsulfoxidecyanoamine)propyl)amino)-1,2,5-oxadiazole-3-carboxamidine]	4.7	35
CS(=O)(CCCNc1nonc1/C(=N/O)Nc1ccc(F)c(Cl)c1)=NC#N (racemic) [compound 10, (±) (Z)—N-(3-chloro-4-fluorophenyl)-N′-hydroxy-4-((3-(thio-methylsulfoxidecyanoamine)propyl)amino)-1,2,5-oxadiazole-3-carboxamidine]	2.8	< 5000
CS(=O)(CCCCNc1nonc1/C(=N/O)Nc1ccc(F)c(Br)c1)=NC#N (racemic) [compound 11, (±) (Z)—N-(3-bromo-4-fluorophenyl)-N′-hydroxy-4-((4-(thio-methylsulfoxidecyanoamine)butyl)amino)-1,2,5-oxadiazole-3-carboxamidine]	7.6	55
CS(=O)(CCCCNc1nonc1/C(=N/O)Nc1ccc(F)c(Cl)c1)=NC#N (racemic) [compound 12, (±)(Z)—N-(3-chloro-4-fluorophenyl)-N′-hydroxy-4-((4-(thio-methylsulfoxidecyanoamine)butyl)amino)-1,2,5-oxadiazole-3-carboxamidine]	2.8	< 18000
CCC(C)(C)C(=O)O/N=C(\Nc1ccc(F)c(Br)c1)c1nonc1NCCS(C)(=O)=NC#N (racemic) [compound 13, (±) (Z)—N-(3-bromo-4-fluorophenyl)-N′-hydroxy(thio-methylsulfoxidecyanoamine)ethyl)amino)-1,2,5-oxadiazole-3-(2,2-dimethyl) butyrate]	14	180
CC(C)C(=O)O/N=C(\Nc1ccc(F)c(Br)c1)c1nonc1NCCS(C)(=O)=NC#N (racemic) [compound 14, (±)(Z)—N-(3-Br-4-fluorophenyl)-N′-hydroxy-4-((2-(thio-methylsulfoxidecyanoamine)ethyl)amino)-1,2,5-oxadiazole-3-isobutyrate]	2.2	120
CC(C)(C)C(=O)O/N=C(\Nc1ccc(F)c(Br)c1)c1nonc1NCCS(C)(=O)=NC#N (racemic) [compound 15, (±)(Z)—N-(3-bromo-4-fluorophenyl)-N′-hydroxy-4-((2-(thio-methylsulfoxidecyanoamine)ethyl)amino)-1,2,5-oxadiazole-3-trimethyl acetate]	47	360
CS(=O)(CCNc1nonc1/C(=N/O)Nc1ccc(F)c(Br)c1)=NC#N (single isomer, unassigned) [compound 6A]	0.3	< 88
CS(=O)(CCNc1nonc1/C(=N/O)Nc1ccc(F)c(Br)c1)=NC#N (single isomer, unassigned) [compound 6B]	0.6	< 82
c1ccc(-c2cnc[nH]2)cc1 [5-phenyl-1-imidazole, reference compound]	> 50000	–
C[S@@](=N)(=O)CCNc1nonc1/C(=N/O)Nc1ccc(F)c(Br)c1 [compound 1A]	< 70	< 5600
C[S@](=N)(=O)CCNc1nonc1/C(=N/O)Nc1ccc(F)c(Br)c1 [compound 1B]	< 80	< 5200
